Legend:
L1210 [1] = assay: (§1) Growth inhibition was evaluated for L1210 cells in culture; format: functional; conditions: Mus musculus, read-out: ID50 (the source's name)
L1210 [2] = assay: as §1; format: functional, Mus musculus

Row | Compound | IC50 (L1210 [1]) [µM] | Inhibition (L1210 [2]) [%]
1 | Nc1nc(O)c2cc(CN(CC(=O)O)c3ccc(C(=O)NC(CCC(=O)O)C(=O)O)cc3)ccc2n1 (stereo not given) | 27 | –
2 | Nc1nc(O)c2cc(CN(Cc3cccc(F)c3)c3ccc(C(=O)NC(CCC(=O)O)C(=O)O)cc3)ccc2n1 (stereo not given) | > 200 | –
3 | Nc1nc(O)c2cc(CN(CC(=O)c3ccccc3)c3ccc(C(=O)NC(CCC(=O)O)C(=O)O)cc3)ccc2n1 (stereo not given) | 100 | –
4 | N#CCCCN(Cc1ccc2nc(N)nc(O)c2c1)c1ccc(C(=O)NC(CCC(=O)O)C(=O)O)cc1 (stereo not given) | > 300 | 10
5 | Nc1nc(O)c2cc(CN(CC3CC3)c3ccc(C(=O)NC(CCC(=O)O)C(=O)O)cc3)ccc2n1 (stereo not given) | > 100 | –
6 | CC(C)N(Cc1ccc2nc(N)nc(O)c2c1)c1ccc(C(=O)NC(CCC(=O)O)C(=O)O)cc1 (stereo not given) | 400 | –
7 | Nc1nc(O)c2cc(CN(CCCO)c3ccc(C(=O)NC(CCC(=O)O)C(=O)O)cc3)ccc2n1 (stereo not given) | 54 | –
8 | NC(=O)CN(Cc1ccc2nc(N)nc(O)c2c1)c1ccc(C(=O)NC(CCC(=O)O)C(=O)O)cc1 (stereo not given) | 87 | –
9 | Nc1nc(O)c2cc(CN(CCC(=O)O)c3ccc(C(=O)NC(CCC(=O)O)C(=O)O)cc3)ccc2n1 (stereo not given) | > 270 | –

Now those with a lower IC50 (L1210 [1]), led by results:

Row | IC50 (L1210 [1]) [µM] | Compound | Inhibition (L1210 [2]) [%]
10 | 5 | Nc1nc(O)c2cc(CN(Cc3cnc(O)nc3O)c3ccc(C(=O)NC(CCC(=O)O)C(=O)O)cc3)ccc2n1 (stereo not given) | –
11 | 16 | Nc1nc(O)c2cc(CN(CCF)c3ccc(C(=O)NC(CCC(=O)O)C(=O)O)cc3)ccc2n1 (stereo not given) | –
12 | 5 | N#CCN(Cc1ccc2nc(N)nc(O)c2c1)c1ccc(C(=O)NC(CCC(=O)O)C(=O)O)cc1 (stereo not given) | –
13 | 5 | C#CCN(Cc1ccc2[nH]c(N)nc(=O)c2c1)c1ccc(C(=O)NC(CCC(=O)O)C(=O)O)cc1 (stereo not given) | –
14 | 5 | Nc1nc(O)c2cc(CNc3ccc(C(=O)NC(CCC(=O)O)C(=O)O)cc3)ccc2n1 (stereo not given) [DIDEAZAFOLATE] | –

— ChEMBL document CHEMBL1122819, “Quinazoline antifolates inhibiting thymidylate synthase: variation of the N10 substituent” (J Med Chem, 1985)
